Drawing on publication PMC9718554, “Discovery of a fragment hit compound targeting D-Ala:D-Ala ligase of bacterial peptidoglycan biosynthesis” (Journal of Enzyme Inhibition and Medicinal Chemistry, 2022), this text covers remaining activity for 37 compounds.

The target of the assay is T1, E. coli DdlB enzyme (D-alanine:D-alanine ligase) (Escherichia coli, UniProt P07862).
T1 construct: made in house; host or cells: E. coli
Briefly: biochemical. The note with it: read-out: DdlB RA; for remaining activity at 3100 µM: tested concentration 3.1 mM; for remaining activity at 1800 µM: tested concentration 1.8 mM; for remaining activity at 2100 µM: tested concentration 2.1 mM; for remaining activity at 2200 µM: tested concentration 2.2 mM; for remaining activity at 2600 µM: tested concentration 2.6 mM; for remaining activity at 2400 µM: tested concentration 2.4 mM; for remaining activity at 2300 µM: tested concentration 2.3 mM. On the procedure: The fragment library was assayed in a DdlB inhibition assay, where fragments were tested for their ability to inhibit the D-Ala-adding activity of DdlB ligase. The orthophosphate formed during the enzymatic reaction was measured spectrophotometrically using malachite green reagent.
A recombinant E. coli DdlB enzyme (D-alanine:D-alanine ligase) was expressed in E. coli[11]. […] The final DMSO concentration was 5%. […] All experiments were performed in duplicates. […] IC50 values were determined by measuring the residual activities in quadruplicate at seven different compound concentrations and calculated using in GraphPad Prism (GraphPad Software, San Diego, CA, USA).

[1] abbreviates: residual activity of DdlB, fragment library screening, tested concentration 2.5 mM.

The structures appear in SMILES notation. Like-named read-outs stand apart in the source and are kept apart here.

Turning to `N=C1NC(=O)CS1` [FLD059], under setting [1], the remaining activity at 2500 µM is 99%.

Consider `OB(O)c1ccc2[nH]ncc2c1` [Compound H024-0113], for which the remaining activity at 3100 µM came out at 93%.

As for `O=C1CCC(C(=O)O)N1` (stereo not shown) [FLD028], the remaining activity at 2500 µM under setting [1] worked out at 100%.

With `CN(Cc1ccccc1)c1c(-c2ccccc2)c(=O)c1=O` [Compound E470-0301], the remaining activity at 1800 µM came out at 103%.

As for `O=S(=O)(Nc1ccccc1Cl)c1ccc(F)cc1` [Compound 1763-0763], the remaining activity at 1900 µM (residual activity, tested concentration 1.9 mM) turned out to be 115%.

As for `O=C1CC[C@H](C(=O)O)O1` [FLD057], the remaining activity at 2500 µM amounted to 100%.

In the case of `N#Cc1ccc(NC(=O)[C@H]2CC=CC[C@H]2C(=O)O)cc1` [Compound 8009-1194], the remaining activity at 2000 µM (residual activity, tested concentration 2.0 mM) turned out to be 91%.

In the case of `Cc1cccc(C(=O)O)c1NC(=O)c1ccc(F)cc1` [Compound 8009-0898], the remaining activity at 1800 µM (residual activity) was found to be 99%.

Turning to `CCn1ncc(Cn2cc(Cl)c(N)n2)c1C` [Compound Y504-8851], the remaining activity at 2100 µM came out at 96%.

For the compound `O=C(Nc1ccc2[nH]c(=O)oc2c1)c1ccc(F)cc1` [Compound G434-0256], the remaining activity at 1800 µM was determined as 74%.

Consider `Cc1cc2nc(O)c(CCO)c(C)n2n1` [Compound 8011-1975], for which, for the setting “tested concentration 2.9 mM”, the remaining activity at 2900 µM was found to be 95%.

Turning to `N[C@H](c1ccccc1)[C@@H](N)c1ccccc1` [FLD112], the remaining activity at 2500 µM is 100%.

As to `O=C(Nc1nc[nH]n1)c1ccc(Cl)cc1` [Compound 8003-7117], the remaining activity at 2200 µM (residual activity) is 103%.

Turning to `Cc1nn(C(C)C(=O)O)cc1Cl` (stereo not shown) [FF01-4477], the remaining activity at 2700 µM (residual activity of DdlB, fragment library screening, tested concentration 2.7 mM) came out at 89%.

Consider `O=C1CCC2(CNC(=O)C3CCOCC3)CCCC=C2N1` (stereo not shown) [Compound S570-0163], for which the remaining activity at 2100 µM (residual activity) was 94%.

As to `Nc1ccc2ccccc2c1` [FLD074], under setting [1], the remaining activity at 2500 µM is 89%.

With `O=C(O)c1nc2ccccc2nc1O` [Compound 8016-8257], the remaining activity at 2600 µM was 97%.

Consider `CCOC(=O)c1cccnc1C` [FLD178], for which the remaining activity at 2500 µM under setting [1] was determined as 99%.

For the compound `O=C(O)c1ccnc(N2CCOCC2)c1` [Compound Y043-8163], the remaining activity at 2400 µM stood at 89%.

Consider `Oc1cc(-c2ccncc2)n[nH]1` [Compound 8011-7794], for which the remaining activity at 3100 µM was 77%.

For the compound `CCS(=O)(=O)N1CCCN(C(=O)C2CC2)CC1` [Compound Z603-0719], the remaining activity at 2300 µM came to 98%.

Consider `Clc1ncnc2[nH]ccc12` [FLD154], for which, under setting [1], the remaining activity at 2500 µM is 95%.

Turning to `N#Cc1ccccc1Br` [FLD114], under setting [1], the remaining activity at 2500 µM was 99%.

For the compound `O=S(=O)(c1ncn[nH]1)N1CCOCC1` [Compound 8013-0403], the remaining activity at 2300 µM (residual activity) came out at 95%.

In the case of `Nc1cc(O)[nH]n1` [FLD042], the remaining activity at 2500 µM under setting [1] came to 100%.

On to `Cn1ccnc1S(=O)(=O)O` [Compound 8019-8648], for which the remaining activity at 3100 µM was 92%.

Take `CC1CCCN(S(=O)(=O)Cc2ccccc2)C1` (stereo not shown) [Compound Y030-1494]: the remaining activity at 2400 µM came out at 79%.

With `CC(=O)CC1(O)C(=O)Nc2ccc(Br)cc21` (stereo not shown) [Compound 5897-0084], the remaining activity at 1800 µM (residual activity) was 96%.

On to `Cc1cc(Cl)nc(N)n1` [FLD046], for which the remaining activity at 2500 µM under setting [1] came to 79%.

Regarding `O=C(Cc1nc(-c2ccccn2)n[nH]1)NCC1CCCO1` (stereo not shown) [Compound 8020-1329F], the remaining activity at 1700 µM (residual activity, tested concentration 1.7 mM) is 104%.

For the compound `OC1CCCc2ccccc21` (stereo not shown) [FLD077], under setting [1], the remaining activity at 2500 µM amounted to 99%.

For `CCc1c(C)[nH]c(=O)c(C(=O)O)c1C(N)=O` [Compound 8020-6319], the remaining activity at 2200 µM (residual activity) was found to be 72%.

On to `O=c1cc(N2CCOCC2)cn[nH]1` [FF20-1495], for which, under “residual activity of DdlB, fragment library screening, tested concentration 3.0 mM”, the remaining activity at 3000 µM was found to be 88%.

On to `O=C1CC(C(=O)O)c2ccccc2N1` (stereo not shown) [Compound K784-1648], for which the remaining activity at 2600 µM worked out at 87%.

Consider `O=C(O)CCNc1nc(F)cc(F)n1` [Compound 8012-6989], for which the remaining activity at 2500 µM (tested concentration 2.5 mM) turned out to be 93%.

Take `CC(=O)NC1CCC(=O)CC1` [FLD101]: under setting [1], the remaining activity at 2500 µM was determined as 98%.

Take `COc1ccc2ccc(O)cc2c1` [FLD013]: the remaining activity at 2500 µM under setting [1] came to 73%.
